Measurements: patent US11013745B2, “Triazolopyrimidine, triazolopyridine compounds, and the composition thereof for treating PRC2-mediated diseases” (SHANGHAI INSTITUTE OF MATERIA MEDICA, CHINESE ACADEMY OF …, priority 2017, dated 2021)

What was measured:
Pfeiffer cells [1] = assay: Pfeiffer cell growth inhibition in a long term (11 days), CellTiter-Glo; format: cell-based, Human; conditions: Homo sapiens, 264 h, 11 days, read-out: Experiment on Pfeiffer cell growth inhibition in a long term (11 days IC50)
Protocol: Pfeiffer cells in exponential growth phase were seeded in a 24-well plate with a cell density of 1*10E5 cells/mL. Cells were treated on the same day with the compounds at different concentrations. At day 4 and day 7 of compound treatment, fresh media and compounds were changed. After treated with the compounds for 11 days, cell viability was measured using CellTiter-Glo reagent (Promega Corporation). The data was analyzed using GraphPad Prism 5.0 software and GI50 values were obtained.

PRC2 enzyme = PRC2 enzyme (Homo sapiens (Human), UniProt O75530); assay: PRC2 enzyme activity, TR-FRET method; format: biochemical
Chain of PRC2 enzyme (O75530 whole entry): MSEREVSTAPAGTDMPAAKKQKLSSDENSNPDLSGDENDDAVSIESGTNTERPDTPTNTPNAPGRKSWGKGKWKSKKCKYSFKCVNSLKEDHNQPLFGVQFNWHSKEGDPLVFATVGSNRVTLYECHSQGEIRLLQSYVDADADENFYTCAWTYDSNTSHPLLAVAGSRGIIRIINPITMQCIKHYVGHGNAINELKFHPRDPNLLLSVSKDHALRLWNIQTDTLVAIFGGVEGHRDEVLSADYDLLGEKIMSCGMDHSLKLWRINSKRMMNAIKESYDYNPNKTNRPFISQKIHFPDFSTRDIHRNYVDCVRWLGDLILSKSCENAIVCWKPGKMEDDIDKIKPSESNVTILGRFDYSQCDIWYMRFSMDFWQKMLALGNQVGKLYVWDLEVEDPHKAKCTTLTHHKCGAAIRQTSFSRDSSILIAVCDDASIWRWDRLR
Chain of PRC2 enzyme (Q15910 whole entry partner): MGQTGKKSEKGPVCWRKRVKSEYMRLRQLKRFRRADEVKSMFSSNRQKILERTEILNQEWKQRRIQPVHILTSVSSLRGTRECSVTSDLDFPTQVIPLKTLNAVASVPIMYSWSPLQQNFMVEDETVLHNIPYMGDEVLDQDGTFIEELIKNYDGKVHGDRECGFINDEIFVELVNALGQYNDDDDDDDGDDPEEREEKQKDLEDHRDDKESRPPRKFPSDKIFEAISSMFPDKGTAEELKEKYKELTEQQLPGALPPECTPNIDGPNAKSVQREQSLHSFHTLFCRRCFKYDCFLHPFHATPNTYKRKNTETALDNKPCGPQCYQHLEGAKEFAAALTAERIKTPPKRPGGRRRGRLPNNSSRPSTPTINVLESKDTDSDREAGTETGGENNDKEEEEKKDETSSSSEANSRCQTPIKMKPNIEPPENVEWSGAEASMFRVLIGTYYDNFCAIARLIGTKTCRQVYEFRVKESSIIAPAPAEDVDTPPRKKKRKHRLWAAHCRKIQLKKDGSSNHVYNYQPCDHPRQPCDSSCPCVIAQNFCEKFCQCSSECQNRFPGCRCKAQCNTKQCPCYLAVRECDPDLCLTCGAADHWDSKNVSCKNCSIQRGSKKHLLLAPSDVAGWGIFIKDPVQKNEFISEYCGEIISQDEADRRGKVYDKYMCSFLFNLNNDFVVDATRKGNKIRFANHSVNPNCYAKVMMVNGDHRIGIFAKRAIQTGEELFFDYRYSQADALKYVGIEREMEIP
Chain of PRC2 enzyme (Q15022 whole entry partner): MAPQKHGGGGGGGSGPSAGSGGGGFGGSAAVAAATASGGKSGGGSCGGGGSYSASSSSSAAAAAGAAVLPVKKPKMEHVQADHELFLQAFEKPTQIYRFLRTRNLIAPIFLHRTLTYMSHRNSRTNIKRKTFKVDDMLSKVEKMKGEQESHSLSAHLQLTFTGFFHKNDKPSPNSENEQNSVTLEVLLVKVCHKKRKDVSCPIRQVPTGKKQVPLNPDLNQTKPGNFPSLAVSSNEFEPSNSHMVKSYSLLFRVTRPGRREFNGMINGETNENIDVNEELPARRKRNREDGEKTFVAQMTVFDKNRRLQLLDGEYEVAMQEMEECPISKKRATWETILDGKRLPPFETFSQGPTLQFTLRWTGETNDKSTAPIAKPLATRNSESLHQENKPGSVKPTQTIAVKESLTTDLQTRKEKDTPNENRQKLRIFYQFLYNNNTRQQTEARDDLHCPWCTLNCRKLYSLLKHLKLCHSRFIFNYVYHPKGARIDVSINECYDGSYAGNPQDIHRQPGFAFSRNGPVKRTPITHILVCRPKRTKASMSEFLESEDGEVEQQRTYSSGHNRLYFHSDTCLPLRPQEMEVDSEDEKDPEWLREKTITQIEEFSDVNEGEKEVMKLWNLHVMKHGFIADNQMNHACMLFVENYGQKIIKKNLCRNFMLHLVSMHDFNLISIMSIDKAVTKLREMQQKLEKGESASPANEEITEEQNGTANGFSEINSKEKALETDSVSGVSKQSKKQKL
Protocol: The TR-FRET method was used to measure the PRC2 enzyme activity. First, the enzyme was mixed with compounds at different concentrations and incubated for 30 min at room temperature. The biotin-labeled histone H3 peptide substrate and the cofactor S-adenosylmethionine (SAM) were added to initiate the enzymatic reaction. After reaction was performed at room temperature for 4 hour, Acceptor and Donor were added and incubated for half an hour. The multifunctional microplate reader EnVision (Perkin Elmer Inc.) was used to detect the fluorescence signal. Data were analyzed using GraphPad Prism 5.0 software, and IC50 values were obtained.

[2] = Liver microsomal stability (human); format: in vitro ADME; conditions: for Clearance rate in vivo Clint In Vivo Extpl / Intrinsic clearance rate in vivo Clint In Vitro / Liver clearance rate Clint Hep In Vivo Extpl: human liver microsomes; for half-life / bioavailability: human, liver microsomes, pH 7.4, human liver microsomes; for half-life: read-out: Half life T-half; for bioavailability: read-out: Metabolic bioavailability MF %
Protocol: (§1) 1. JANUS and temperature control device was turned on. After being initialized, the pipes were flushed until there was no air bubble in the pipes.
(§2) 2. Preparation of buffers used for the experiment
(§3) Preparation of Tris pH 7.4 buffer (0.1 M): 12.12 g of Tris was dissolved in 1000 mL of H2O, the resulting solution was adjusted to pH 7.4 with 2N HCl, aliquoted at 50 mL per tube, and stored at −20° C.
(§4) Preparation of H2O/0.1% BSA buffer: 200 μL of 25% BSA was added to 50 mL of H2O.
(§5) Preparation of VIVID stock solution: 1 mg of VIVID was dissolved in 1 mL of acetonitrile, aliquoted at 50 μL per tube, and stored at −20° C.
(§6) Preparation of MgCl2 solution (100 mM): 1.016 g of MgCl2 was dissolved in 50 mL Tris pH 7.4 buffer, and aliquoted at 1 mL per tube, and stored at −20° C.
(§7) Preparation of NADPH solution (10 mM): 355 mg of NADPH was dissolved in 42.6 mL of Tris pH 7.4 buffer, aliquoted at 1.8 mL per tube, and stored at −20° C.
(§8) Preparation of Blank control: 7.937 mL of Tris, 163 μL of RLM, 450 μL of MgCl2 solution, 450 μL of NADPH solution and 9 mL of methanol were mixed uniformly, aliquoted at 1 mL per tube, and stored at −20° C.
(§9) 3. Preparation of Compound Working Solution
(§10) Dilution step 1:10 μL of compound stock solution was added to 90 μL of DMSO=1 mM stock solution.
(§11) Dilution step 2: 2 μL of 1 mM stock solution was added to 1 mL of H2O/0.1%6 BSA buffer=[…] working solution.
(§12) Dilution step 3: 245 μL of the working solution was added to a 96-well compound plate and added with 5 μL of VIVID stock solution.
(§13) The 96-well compound plate was shaken on a shaker for 5 min.
(§14) 4. The STM in the JANUS in the computer was open to run the EXCEL file, and the JANUS program was operated and run by following the instructions in the EXCEL file.
(§15) 5. After the JANUS program was finished, acetonitrile/water 50:50 (V/V) was added to column 20 of the 384-well black plate, and blank control was added to column 21 of the 384-well black plate.
(§16) 6. the plate (420 nm-465 nm) was read on a microplate reader to determine the VIVID fluorescence intensity.
(§17) 7. After the plate was sealed, shaken and centrifuged, the sample plate was subjected to the LC/MS instrument for sample analysis.
(§18) A profile of the logarithmic value of the remaining rate of the drug in the incubation system versus the incubation time was plotted, and the slope k was obtained by linear regression. The intrinsic clearance rate in vivo (Clint, mL/min/g) value, the clearance rate in vivo (Cl, mL)/min), liver clearance (Clhep, mL/min) and metabolic bioavailability (% MF) were predicted according to the following equations: […]

[3] = Liver microsomal stability (rat); format: in vitro ADME; conditions: for Clearance rate in vivo Clint In Vivo Extpl / Intrinsic clearance rate in vivo Clint In Vitro / Liver clearance rate Clint Hep In Vivo Extpl / Metabolic bioavailability MF %: rat liver microsomes; for half-life: rat, liver microsomes, pH 7.4, rat liver microsomes, read-out: Half life T-half
Protocol: as §1, §2, §3, §4, §5, §6, §7, §8, §9, §10, §11, §12, §13, §14, §15, §16, §17, §18

[4] = Liver microsomal stability (mouse); format: in vitro ADME; conditions: for Clearance rate in vivo Clint In Vivo Extpl / Intrinsic clearance rate in vivo Clint In Vitro / Liver clearance rate Clint Hep In Vivo Extpl / Metabolic bioavailability MF %: mouse liver microsomes; for half-life: mouse, liver microsomes, pH 7.4, mouse liver microsomes, read-out: Half life T-half
Pfeiffer cells [5] = assay: Growth inhibition of Pfeiffer cells in a long term (14 days), CellTiter-Glo; format: cell-based, Human; conditions: Homo sapiens, 336 h, 14 days, read-out: Pfeiffer (14 days) IC50
Protocol: In a CO2 cell incubator (37° C., 5% CO2), Human diffuse large B-cell lymphoma (DLBCL) cell line, pfeiffer (obtained from ATCC, CRL-2632) were incubated with RPMI 1640 medium (Gibco, purchased from Life Technologies, 22400-089) containing 10% fetal bovine serum (Gibco, purchased from Life Technologies, 10099-141) and 1% antibiotics (penicillin and streptomycin, purchased from Life Technologies, 10378016). […] After seeding the cells, they were placed in a CO2 incubator and allowed to stand for 1 hour. In a 24-well plate containing cells, 2 μL of three-fold gradient of the compounds at 9 different concentrations or DMSO were added to each well, such that the final concentration of the compounds was 0.003-20 μM or 0.3-2000 nM, and the final concentration of DMSO was 0.2%. At day 4, day 7, and day 11 of compound treatment, the fresh medium and compounds were changed, and the cell density of the DMSO control well was diluted to 2*10E5 cells/mL. The cell dilution ratio for other compound wells was the same as that of the DMSO control well. Cell viability was determined by using CellTiter-Glo reagent (purchased from Promega Inc., G7572): cells treated with the compounds for 14 days were transferred to a white 384-well plate (OptiPlate-384, purchased from PerkinElmer, 6007299) at 40 μL/well, an equal volume of CellTiter-Glo reagent was further added. After incubating at room temperature for 10 min, the cold luminescence signal was detected with a multifunctional microplate reader EnVision (PerkinElmer) at a wavelength of 400 to 700 nm. Data were analyzed using GraphPad Prism 5.0 software, and IC50 values were obtained.

Karpas-422 cells = assay: Growth inhibition of Karpas-422 cells in a long term (11 days), CellTiter-Glo; format: cell-based, Human; conditions: Homo sapiens, 264 h; Karpas-422, 11 days; read-out: Karpas-422 (11 days) IC50

O=C(CN1CCOCC1)N1CC=C(c2cnc(NCc3ccco3)n3cnnc23)CC1 [E-Y36]
IC50 (Pfeiffer cells [1]): 289 nM
IC50 (PRC2 enzyme): 543 nM

O=C(CN1CCOCC1)N1CC=C(c2cnc(NCc3c(F)ccc4c3CCO4)n3cnnc23)CC1 [E-Y40]
Clearance rate in vivo Clint In Vivo Extpl [2]: 2522 mL/min
Intrinsic clearance rate in vivo Clint In Vitro [2]: 33.0 mL/min/gprot
Liver clearance rate Clint Hep In Vivo Extpl [2]: 941 mL/min
half-life [2]: 1.06 h
bioavailability [2]: 37.3%
Clearance rate in vivo Clint In Vivo Extpl [3]: 59.6 mL/min
Intrinsic clearance rate in vivo Clint In Vitro [3]: 133 mL/min/gprot
Liver clearance rate Clint Hep In Vivo Extpl [3]: 15.0 mL/min
Metabolic bioavailability MF % [3]: 25.1%
half-life [3]: 0.265 h
IC50 (Pfeiffer cells [1]): 5.4 nM
IC50 (PRC2 enzyme): 16.1 nM
Clearance rate in vivo Clint In Vivo Extpl [4]: 23.2 mL/min
Intrinsic clearance rate in vivo Clint In Vitro [4]: 344 mL/min/gprot
Liver clearance rate Clint Hep In Vivo Extpl [4]: 2.66 mL/min
Metabolic bioavailability MF % [4]: 11.4%
half-life [4]: 0.102 h

O=C(c1cnco1)N1CC=C(c2cnc(NCc3c(F)ccc4c3CCO4)n3cnnc23)CC1 [E-Y41]
IC50 (Pfeiffer cells [1]): 4.5 nM
IC50 (PRC2 enzyme): < 20 nM

Cc1cc(C(=O)N2CC=C(c3cnc(NCc4c(F)ccc5c4CCO5)n4cnnc34)CC2)n(C)n1 [E-Y42]
IC50 (Pfeiffer cells [5]): 1.5 nM
IC50 (Pfeiffer cells [1]): 3.6 nM
IC50 (PRC2 enzyme): 4.8 nM
IC50 (Karpas-422 cells): 10 nM

O=C(C1CCOCC1)N1CC=C(c2cnc(NCc3c(F)ccc4c3CCO4)n3cnnc23)CC1 [E-Y43]
Clearance rate in vivo Clint In Vivo Extpl [2]: 1464 mL/min
Intrinsic clearance rate in vivo Clint In Vitro [2]: 19.1 mL/min/gprot
Liver clearance rate Clint Hep In Vivo Extpl [2]: 741 mL/min
half-life [2]: 1.83 h
bioavailability [2]: 50.6%
Clearance rate in vivo Clint In Vivo Extpl [3]: 44.8 mL/min
Intrinsic clearance rate in vivo Clint In Vitro [3]: 99.6 mL/min/gprot
Liver clearance rate Clint Hep In Vivo Extpl [3]: 13.8 mL/min
Metabolic bioavailability MF % [3]: 30.9%
half-life [3]: 0.352 h
IC50 (Pfeiffer cells [1]): 3.3 nM
IC50 (PRC2 enzyme): 8.5 nM
Clearance rate in vivo Clint In Vivo Extpl [4]: 10.9 mL/min
Intrinsic clearance rate in vivo Clint In Vitro [4]: 161 mL/min/gprot
Liver clearance rate Clint Hep In Vivo Extpl [4]: 2.35 mL/min
Metabolic bioavailability MF % [4]: 21.6%
half-life [4]: 0.217 h

O=C(OCc1ccccc1)N1CC=C(c2cnc(NCc3c(F)ccc4c3CCO4)n3cnnc23)CC1 [E-Y44]
IC50 (Pfeiffer cells [1]): 2.3 nM
IC50 (PRC2 enzyme): 85.8 nM

C=CC(=O)N1CC=C(c2cnc(NCc3c(F)ccc4c3CCO4)n3cnnc23)CC1 [E-Y45]
IC50 (Pfeiffer cells [1]): 1.8 nM
IC50 (PRC2 enzyme): 3.4 nM

CCNC(=O)N1CCC(c2cnc(NCc3c(F)ccc4c3CCO4)n3cnnc23)CC1 [E-Y48]
IC50 (Pfeiffer cells [1]): 15.9 nM
IC50 (PRC2 enzyme): 5.4 nM

CC(C)(C)NC(=O)N1CCC(c2cnc(NCc3c(F)ccc4c3CCO4)n3cnnc23)CC1 [E-Y49]
IC50 (Pfeiffer cells [1]): 10 nM
IC50 (PRC2 enzyme): 6.6 nM

CC(=O)N1CCC(c2cnc(NCc3c(F)ccc4c3CCO4)n3cnnc23)CC1 [E-Y50]
Clearance rate in vivo Clint In Vivo Extpl [2]: 174 mL/min
Intrinsic clearance rate in vivo Clint In Vitro [2]: 2.28 mL/min/gprot
Liver clearance rate Clint Hep In Vivo Extpl [2]: 156 mL/min
half-life [2]: 15.4 h
bioavailability [2]: 89.6%
Clearance rate in vivo Clint In Vivo Extpl [3]: 10.9 mL/min
Intrinsic clearance rate in vivo Clint In Vitro [3]: 24.2 mL/min/gprot
Liver clearance rate Clint Hep In Vivo Extpl [3]: 7.05 mL/min
Metabolic bioavailability MF % [3]: 64.8%
half-life [3]: 1.45 h
IC50 (Pfeiffer cells [1]): 3.8 nM
IC50 (PRC2 enzyme): 5.3 nM
Clearance rate in vivo Clint In Vivo Extpl [4]: 0.921 mL/min
Intrinsic clearance rate in vivo Clint In Vitro [4]: 13.6 mL/min/gprot
Liver clearance rate Clint Hep In Vivo Extpl [4]: 0.705 mL/min
Metabolic bioavailability MF % [4]: 76.5%
half-life [4]: 2.57 h

CC(=O)N1CCC=C(c2cnc(NCc3c(F)ccc4c3CCO4)n3cnnc23)CC1 [SL-E13]
IC50 (Pfeiffer cells [1]): 6 nM
IC50 (PRC2 enzyme): 3.3 nM

O=S1(=O)CC=C(c2cnc(NCc3c(F)ccc4c3CCO4)n3cnnc23)CC1 [SL-ZYE-09]
IC50 (Pfeiffer cells [5]): 3.2 nM
IC50 (PRC2 enzyme): 4.5 nM

CC1C=C(c2cnc(NCc3c(F)ccc4c3CCO4)n3cnnc23)CC(C)O1 (stereo not shown) [SL-ZYE-24]
IC50 (Pfeiffer cells [5]): 6 nM
IC50 (PRC2 enzyme): 8.3 nM

Fc1ccc2c(c1CNc1ncc(C3=CCOc4ccccc43)c3nncn13)CCO2 [SL-ZYE-28]
IC50 (Pfeiffer cells [5]): 10 nM
IC50 (PRC2 enzyme): 22.5 nM

CC1(C)CC(c2cnc(NCc3c(F)ccc4c3CCO4)n3cnnc23)=CCO1 [SL-ZYE-119]
IC50 (Pfeiffer cells [5]): 4 nM
IC50 (Pfeiffer cells [1]): 8.1 nM
IC50 (PRC2 enzyme): 23.3 nM

CCOC(=O)N1CC=C(c2cnc(NCc3c(F)ccc4c3CCO4)n3cnnc23)CC1 [SL-ZYE-148]
IC50 (Pfeiffer cells [1]): 1 to 3 nM
IC50 (PRC2 enzyme): 4.7 nM

CCC(=O)N1CC=C(c2cnc(NCc3c(F)ccc4c3CCO4)n3cnnc23)CC1 [SL-ZYE-161]
IC50 (Pfeiffer cells [1]): 9 to 27 nM
IC50 (PRC2 enzyme): 40.8 nM
